# From patent US7998965B2, “Glutamate aggrecanase inhibitors” (Wyeth LLC, priority 2005, dated 2011)
# Like-named read-outs stand apart in the source and are kept apart here.
# Assays:
# [1] = tested on: bovine articular cartilage treated with Interleukin 1 alpha (IL-1α); assay: Bovine articular cartilage explant cultures: inhibition of degradation of proteoglycan; assay type: cell-based; settings: inhibitory effect expressed as percentage, concentration not printed
# Source text: This in vitro procedure was used to evaluate the effect and relative potencies of small molecule compounds to inhibit the degradation of proteoglycan in articular cartilage treated with Interleukin 1 alpha (IL-1α). Treatment of articular cartilage with IL 1α induces expression of a cascade of enzymes that initiates cartilage matrix degradation. This assay was utilized to select small molecule compounds that inhibit the enzyme activity and protects cartilage matrix degradation.
# Articular cartilage: bovine metacarpal joints were disinfected with 10% Wescodyne followed by 70% ethanol. 6 mm articular cartilage discs were prepared and rinsed once in PBS and medium, respectively. The discs were cultured in a stirring flask with serum-free medium for 5 days for equilibrium with one medium change. Small molecule compounds: stock solutions of test small molecule compounds (usually at 5 mg/ml) were prepared in DMSO. Working solutions were diluted with DMSO and generally ranged from 0.1 μg/ml to 10 ug/ml. The DMSO stocks were stored at […]. Articular cartilage explant culture medium: DMEM, 2 mM glutamax, 100 U/ml of antibiotic and antimycotic, 50 μg/ml ascorbate and 10 mM Hepes (pH-7.0). Proteoglycan content-Dimethyl methylene blue (DMMB) solution: […] DMMB, 10 ml 100% ethanol, 29.5 ml of 1M NaOH, 3.5 ml of 98% formic acid and water to 1 L. Chondroitin sulphate sodium salt: 1.56-200 ug/ml serial dilutions.
# For the explant culture, cartilage discs were cultured in serum-free medium for 48 h or more. Discs were weighed and transferred to a 96-well plate, 1 disc per-well. 0.2 ml of medium containing 5 ng/ml of IL-1 and different concentrations of compounds were added to each well, with 3 wells allocated for each treatment. The medium was collected at days 1, 2, & 3 and replaced accordingly.
# For the DMMB assay, conditioned medium (CM) samples were diluted with medium. 10 ul of each standard or diluted sample was added in duplicate into a 96-well-plate and 200 μl of DMMB solution was added into each well. Absorbance at 520 nm was measured for each well. Proteoglycan contents in CM were calculated daily.
# The proteoglycan contents are expressed as ug per mg of cartilage. The inhibitory effect of the compounds is expressed as percentage. (See, Tortorella, M. D. et al., Science 1999, 284, 1664-1666).
# [2] = target: T1, purified recombinant human Aggrecanase-1 (rAgg1) (Homo sapiens, UniProt O75173); assay: In vitro fluorescence screen for Aggrecanase-1 inhibitors; assay type: biochemical; settings: for IC50: read-out: Agg1 IC50
# T1 sequence (O75173 213-837): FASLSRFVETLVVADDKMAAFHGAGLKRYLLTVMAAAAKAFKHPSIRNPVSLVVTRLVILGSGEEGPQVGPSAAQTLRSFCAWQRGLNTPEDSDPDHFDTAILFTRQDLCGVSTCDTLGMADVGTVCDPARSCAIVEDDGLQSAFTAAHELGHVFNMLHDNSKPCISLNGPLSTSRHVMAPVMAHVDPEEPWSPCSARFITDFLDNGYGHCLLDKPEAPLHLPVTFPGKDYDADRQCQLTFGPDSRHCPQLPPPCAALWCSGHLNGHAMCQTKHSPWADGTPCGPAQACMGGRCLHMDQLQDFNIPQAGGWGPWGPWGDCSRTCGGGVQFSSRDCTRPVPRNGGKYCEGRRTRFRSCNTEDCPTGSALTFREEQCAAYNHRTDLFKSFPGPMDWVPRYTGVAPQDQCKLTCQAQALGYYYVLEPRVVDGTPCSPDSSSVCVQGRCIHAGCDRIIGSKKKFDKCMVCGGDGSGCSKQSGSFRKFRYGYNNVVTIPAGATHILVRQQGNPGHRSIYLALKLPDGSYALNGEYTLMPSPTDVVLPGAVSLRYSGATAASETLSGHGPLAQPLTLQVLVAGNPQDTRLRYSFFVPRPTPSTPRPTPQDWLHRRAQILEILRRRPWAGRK
# [3] = target: T2, purified recombinant human Aggrecanase-2 (Ag2t-Phe628-Strep) (Homo sapiens, UniProt Q9UNA0); assay: In vitro fluorescence screen for Aggrecanase-2 inhibitors; assay type: biochemical; settings: for IC50: read-out: Agg 2 IC50; for Ki: read-out: Ki Agg2
# T2 construct: the form used is denoted as Ag2t-Phe628-Strep (MW=41,737)
# T2 sequence (Q9UNA0 262-628): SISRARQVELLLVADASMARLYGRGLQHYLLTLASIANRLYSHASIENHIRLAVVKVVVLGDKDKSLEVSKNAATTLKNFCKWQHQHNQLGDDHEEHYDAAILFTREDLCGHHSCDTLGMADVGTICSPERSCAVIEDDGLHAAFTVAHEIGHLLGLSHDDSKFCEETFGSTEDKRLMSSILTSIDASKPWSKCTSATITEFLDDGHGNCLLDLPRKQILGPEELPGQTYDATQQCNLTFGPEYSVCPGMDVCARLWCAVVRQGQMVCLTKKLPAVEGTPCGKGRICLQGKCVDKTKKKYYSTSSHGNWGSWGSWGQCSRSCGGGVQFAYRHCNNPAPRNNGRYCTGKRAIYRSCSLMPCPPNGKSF
# [4] = target: T3, recombinant human catalytic domain of MMP-13 (Homo sapiens, UniProt P45452); assay: In vitro fluorescence assay of MMP-13 activity; assay type: biochemical; settings: Table 2; nM printed in one cell only
# T3 construct: catalytic domain of MMP-13 (165 amino acids, residues 104-268, 19 kDa)
# [5] = Table 1, first of two columns headed bovine
# [6] = Table 1, second of two columns headed bovine
# [7] = Table 1, enzyme not given, column follows Agg1 IC50, read-out: Ki
smiles,measurement,setting,value
"O=C(O)CC[C@H](NC(=O)c1ccc(-c2ccccc2)cc1)C(=O)NCc1ccc(F)c(F)c1 [Example 8AAA, N^2-(1,1′-biphenyl-4-ylcarbonyl)-N^1-(3,4-difluorobenzyl)-L-α-glutamine]",bovine,[1]; [5],83%
same,bovine,[1]; [6],55%
same,Ki,[2]; [7],44 nM
same,IC50,[2]; Table 1,48 nM
"CN(C)c1cccc(CNC(=O)[C@H](CCC(=O)O)NC(=O)c2ccc(-c3ccccc3)cc2)c1 [Example 8BBBB, N^2-(biphenyl-4-ylcarbonyl)-N^1-[3-(dimethylamino)benzyl]-L-α-glutamine]",bovine,[1]; [5],40%
same,bovine,[1]; [6],0%
same,IC50,[2]; Table 1,100 nM
"O=C(O)CC[C@H](NC(=O)c1ccc(-c2ccccc2)cc1)C(=O)NCC1CC1 [Example 8CCC, N^2-(1,1′-biphenyl-4-ylcarbonyl)-N^1-(cyclopropylmethyl)-L-α-glutamine]",bovine,[1]; [5],74%
same,bovine,[1]; [6],26%
same,IC50,[2]; Table 1,100 nM
"O=C(O)CC[C@H](NC(=O)c1ccc(-c2ccccc2)cc1)C(=O)NCCCc1ccccc1 [Example 8FF, N^2-(1,1′-biphenyl-4-ylcarbonyl)-N^1-(3-phenylpropyl)-L-α-glutamine]",bovine,[1]; [5],86%
same,bovine,[1]; [6],50%
same,Ki,[2]; [7],28 nM
same,IC50,[2]; Table 1,26 nM
"CCCNC(=O)[C@H](CCC(=O)O)NC(=O)c1ccc2c(c1)Cc1ccccc1-2 [Example 8FFFFF, N^2-(9H-fluoren-2-ylcarbonyl)-N^1-propyl-L-α-glutamine]",IC50,[3]; Table 2,710 nM
same,IC50,[4],> 100000 nM
same,IC50,[2]; Table 2,92 nM
"O=C(O)CC[C@H](NC(=O)c1ccc(-c2ccccc2)cc1)C(=O)NCc1cccc(C(F)(F)F)c1 [Example 8GGG, N^2-(1,1′-biphenyl-4-ylcarbonyl)-N^1-[3-(trifluoromethyl)benzyl]-L-α-glutamine]",bovine,[1]; [5],57%
same,bovine,[1]; [6],12%
same,IC50,[2]; Table 1,100 nM
"O=C(O)CC[C@H](NC(=O)c1ccc(-c2ccccc2)cc1)C(=O)NCCCCc1ccccc1 [Example 8II, N^2-(1,1′-biphenyl-4-ylcarbonyl)-N^1-(4-phenylbutyl)-L-α-glutamine]",bovine,[1]; [5],75%
same,bovine,[1]; [6],40%
same,Ki,[2]; [7],39 nM
same,IC50,[2]; Table 1,44 nM
"O=C(O)CC[C@H](NC(=O)c1ccc(-c2ccccc2)cc1)C(=O)NCc1ccc(OC(F)(F)F)cc1 [Example 8T, N^2-(1,1′-biphenyl-4-ylcarbonyl)-N^1-[4-(trifluoromethoxy)benzyl]-L-α-glutamine]",bovine,[1]; [5],51%
same,bovine,[1]; [6],20%
same,IC50,[2]; Table 1,300 nM
"O=C(O)CC[C@H](NC(=O)c1ccc(-c2ccccc2)cc1)C(=O)NCc1cccc(OC(F)(F)F)c1 [Example 8U, N^2-(1,1′-biphenyl-4-ylcarbonyl)-N^1-[3-(trifluoromethoxy)benzyl]-L-α-glutamine]",bovine,[1]; [5],63%
same,bovine,[1]; [6],26%
same,IC50,[2]; Table 1,200 nM
"O=C(O)CC[C@H](NC(=O)c1ccc(-c2ccccc2)cc1)C(=O)NC1c2ccccc2-c2ccccc21 [Example 8YYYYY, N^2-(biphenyl-4-ylcarbonyl)-N^1-9H-fluoren-9-yl-L-α-glutamine]",IC50,[3]; Table 2,2800 nM
same,IC50,[4],~20000 nM
same,IC50,[2]; Table 2,87 nM
"CC(C)(Cc1ccc(F)cc1)NC(=O)[C@@H](CCC(=O)O)NC(=O)c1ccc(-c2ccc(Cl)s2)cc1 [N^2-[4-(5-chloro-2-thienyl)benzoyl]-N-[2-(4-fluorophenyl)-1,1-dimethylethyl]-D-α-glutamine]",IC50,[3]; Table 3,> 2700 nM
same,IC50,[2]; Table 3,> 400 nM
"CC(C)(Cc1ccc(F)cc1)NC(=O)[C@H](CCC(=O)O)NC(=O)c1ccc(-c2ccccc2)cc1F [N^2-[(3-fluorobiphenyl-4-yl)carbonyl]-N-[2-(4-fluorophenyl)-1,1-dimethylethyl]-L-α-glutamine]",IC50,[3]; Table 3,200 nM
same,IC50,[2]; Table 3,< 30 nM
"CC(C)(Cc1ccc(F)cc1)NC(=O)[C@H](CCC(=O)O)NC(=O)c1ccc(-c2cccc(Cl)c2)cc1 [N^2-[(3′-chlorobiphenyl-4-yl)carbonyl]-N-[2-(4-fluorophenyl)-1,1-dimethylethyl]-L-α-glutamine]",IC50,[3]; Table 3,200 nM
same,Ki,[3]; Table 3,157 nM
same,IC50,[2]; Table 3,< 30 nM
same,Ki,"[2]; Table 3, read-out: Ki Agg1",8.8 nM
"CC(C)(Cc1ccc(F)cc1)NC(=O)[C@H](CCC(=O)O)NC(=O)c1ccc(-c2cccc(F)c2)cc1 [N^2-[(3′-fluorobiphenyl-4-yl)carbonyl]-N-[2-(4-fluorophenyl)-1,1-dimethylethyl]-L-α-glutamine]",IC50,[3]; Table 3,77 nM
same,Ki,[3]; Table 3,81 nM
same,IC50,[2]; Table 3,< 30 nM
same,Ki,"[2]; Table 3, read-out: Ki Agg1",4.5 nM
"CC(C)(Cc1ccc(F)cc1)NC(=O)[C@H](CCC(=O)O)NC(=O)c1ccc(-c2ccc(Cl)cc2)cc1 [N^2-[(4′-chlorobiphenyl-4-yl)carbonyl]-N-[2-(4-fluorophenyl)-1,1-dimethylethyl]-L-α-glutamine]",IC50,[3]; Table 3,59 nM
same,Ki,[3]; Table 3,54 nM
same,IC50,[2]; Table 3,< 30 nM
same,Ki,"[2]; Table 3, read-out: Ki Agg1",6.7 nM
"CC(C)(Cc1ccc(F)cc1)NC(=O)[C@H](CCC(=O)O)NC(=O)c1ccc(-c2ccc(F)cc2)cc1 [N^2-[(4′-fluorobiphenyl-4-yl)carbonyl]-N-[2-(4-fluorophenyl)-1,1-dimethylethyl]-L-α-glutamine]",IC50,[3]; Table 3,83 nM
same,Ki,[3]; Table 3,75 nM
same,IC50,[2]; Table 3,< 30 nM
same,Ki,"[2]; Table 3, read-out: Ki Agg1",6.9 nM
"CC(C)(Cc1ccccc1)NC(=O)[C@H](CCC(=O)O)NC(=O)c1ccc(-c2ccc(F)c(Cl)c2)s1 [N^2-{[5-(3-chloro-4-fluorophenyl)-2-thienyl]carbonyl}-N-(1,1-dimethyl-2-phenylethyl)-L-α-glutamine]",IC50,[3]; Table 3,60 to 200 nM
same,Ki,[3]; Table 3,156 nM
same,IC50,[2]; Table 3,< 30 nM
same,Ki,"[2]; Table 3, read-out: Ki Agg1",< 3 nM
"CC(C)(Cc1ccc(Cl)cc1)NC(=O)[C@H](CCC(=O)O)NC(=O)c1ccc(-c2ccc(F)c(Cl)c2)s1 [N^2-{[5-(3-chloro-4-fluorophenyl)-2-thienyl]carbonyl}-N-[2-(4-chlorophenyl)-1,1-dimethylethyl]-L-α-glutamine]",IC50,[3]; Table 3,3000 nM
same,IC50,[2]; Table 3,60 nM
"CC(C)(Cc1ccc(F)cc1)NC(=O)[C@H](CCC(=O)O)NC(=O)c1ccc(-c2ccc(F)c(Cl)c2)s1 [N^2-{[5-(3-chloro-4-fluorophenyl)-2-thienyl]carbonyl}-N-[2-(4-fluorophenyl)-1,1-dimethylethyl]-L-α-glutamine]",IC50,[3]; Table 3,98 nM
same,Ki,[3]; Table 3,45 nM
same,IC50,[2]; Table 3,< 30 nM
same,Ki,"[2]; Table 3, read-out: Ki Agg1",6.7 nM
"CC(C)(Cc1ccccc1)NC(=O)[C@H](CCC(=O)O)NC(=O)c1ccc(-c2ccc(Cl)s2)nc1 [N^2-{[6-(5-chloro-2-thienyl)pyridin-3-yl]carbonyl}-N-(1,1-dimethyl-2-phenylethyl)-L-α-glutamine]",IC50,[3]; Table 3,100 to 300 nM
same,Ki,[3]; Table 3,359 nM
same,IC50,[2]; Table 3,20 to 70 nM
same,Ki,"[2]; Table 3, read-out: Ki Agg1",37.6 nM
